{"source": "patent US20070299119A1", "about": "“Prophylactic or Therapeutic Agent for Severe Diabetic Retinopathy” (SANWA KAGAKU KENKYUSHO CO., LTD., priority 2004, published 2007)", "tested_on": "severe retinopathy (tractional retinal detachment, IRMA) in SDT rats", "test": "Histopathological examination and fluorescein fundus angiography of severe retinopathy in spontaneously diabetic Torii (SDT) rats", "format": "in vivo, rat", "experimental": "Diabetes mellitus occurs in spontaneously diabetic Torii (SDT) rats at about 20 weeks of age. Accordingly, blood glucose levels were confirmed at about 25 weeks of age, and rats showing an increase in blood glucose level (at least 300 mg/dl) were used in the experiment. The male SDT rats confirmed to develop diabetes mellitus were divided into two groups, that is, 1) untreatment control (n=14) group and 2) SNK-860 treatment (16 mg/kg/day, n=17)group. The compound was mixed with usual feed (CRF-1: Oriental Yeast Co., Ltd.) and then administered into the rats. The CRF-1 solid feed not containing the compound was freely ingested by the control group, while CRF-1 solid feed containing 0.01333% SNK-860 was freely ingested by the SNK-860 treatment group. At 36 weeks of age and at 52 to 58 weeks of age, the rats were anesthetized and then the eyeballs were excised and used in histopathological examination. The SNK-860-containing feed was prepared in the following manner. SNK-860 was weighed and mixed well with a small amount of CRF-1 powdered feed. Thereafter, additional powdered feed was added thereto, stirred well and solidified. The dose established this time was 16 mg/kg. The concentration of this agent in the feed, calculated on the basis of the established dose, the weight of the rat and the amount of the feed ingested for 1 day, was 0.01333%. The histopathological examination was carried out in the following manner. The rat was anesthetized with ether and by intraperitoneal administration of Nembutal, and then the eyeballs were excised. The excised eyeballs were placed in a mixed solution (1:1:2) consisting of 4% glutaraldehyde, 10% neutral formalin and a phosphate buffer (pH 7.2, 0.3 mol/l). After 60 minutes, the eyeball was cut into halves under a stereoscopic microscope and then stored overnight at 4° C. The next morning, the eyeballs were embedded in a usual manner into paraffin to prepare a transverse section containing a bundle of optic nerves. The section was stained with hematoxylin-eosin. Fluorescein fundus angiography was carried out by opening the chest under the same anesthesia, injecting fluorescein dextran (Sigma, 50 mg/1 ml PBS) into the heart, and after 5 minutes, excising the eyeballs. That is, the retina was separated from the excised eyeball, spread on a slide glass to prepare a flat mounted specimen of the retina, then observed with a stereoscopic fluorescent microscope and photographed to evaluate retinopathy. When retinal fold (retinal detachment) accompanied by thickening of the retina around optic nerve head was recognized in the pathological examination, or when fluorescence dye leakage accompanied by retinal vascular tortuosity and/or caliber variation around optic nerve head was recognized in the fluorescein fundus photography, it was assumed that severe retinopathy occurred in the SDT rat. […] That is, it was attempted to clarify the inhibitory effect on the onset by setting a longer duration of the disease.", "key": {"[1]": {"details": "male SDT rats, 16 mg/kg/day in feed from about 25 weeks of age, at 36 weeks of age, pathological examination"}}, "data": [{"smiles": "NC(=O)[C@@H]1C[C@]2(NC(=O)NC2=O)c2cc(F)ccc2O1", "note": "[SNK-860, (2S,4S)-6-fluoro-2′,5′-dioxospiro[chroman-4,4′-imidazolidine]-2-carboxamide]", "values": [{"measurement": "inhibitory effect on the onset of tractional retinal detachment (in words)", "setting": "SDT rats, long-term administration", "value": "strongly inhibited"}, {"measurement": "onset of tractional retinal detachment (affected eyes/examined eyes)", "setting": "[1]", "value": "0/3"}, {"measurement": "onset of tractional retinal detachment (percent of eyes)", "setting": "[1]", "value": 0, "unit": "%"}, {"measurement": "degree of onset of tractional retinal detachment or fluorescence dye leakage accompanied by retinal vascular tortuosity and/or caliber variation around optic nerve head (affected eyes/examined eyes)", "setting": "male SDT rats, 16 mg/kg/day in feed from about 25 weeks of age, at 52-58 weeks of age, untreated 7/11 eyes", "value": "3/14"}, {"measurement": "degree of onset of tractional retinal detachment or fluorescence dye leakage accompanied by retinal vascular tortuosity and/or caliber variation around optic nerve head (percent of eyes)", "setting": "male SDT rats, 16 mg/kg/day in feed from about 25 weeks of age, at 52-58 weeks of age, untreated 64%", "value": 21, "unit": "%"}]}]}
